Experimental data published in patent US11383241B2, “Mechano-node pore sensing” (The Regents of the University of California, priority 2017, dated 2022).

Tests used:
Type in all cases: cell-based, human
F-actin filaments = assay: F-actin staining (rhodamine phalloidin) and confocal microscopy of treated cells; details: MCF-7 and MCF-10A cells, after one hour incubation; more so with Lat-A than with Lat-B
Experimental: (§1) We disrupted actin polymerization with Latrunculin A and B (LatA and LatB, Enzo Life Sciences)^50. Prior to deformability measurements, MCF-7 and MCF-10A cells were incubated with 2.5 or 5 μg/mL LatA or LatB in each cell's respective growth medium for one hour at 37° C. and 5% CO2^29, 51, 52. Cells were then released from culture flasks with 0.25% trypsin/EDTA, rinsed once with PBS, centrifuged at […], and re-suspended in PBS at a concentration of ˜100,000 cells/mL. […] They were then permeabilized with 0.1% Triton-X 100 (Sigma-Aldrich) in PBS for 5 min. Cell nuclei and F-actin were then counter-stained with 4′,6-diamidino-2-phenylindole (DAPI, Sigma-Aldrich, 10236276001) and rhodamine phalloidin (Thermo Fisher Scientific, R415), respectively, per manufacturer's protocol, and then imaged with a Zeiss LSM710 confocal microscope.

MCF-7 cells = assay: mechano-NPS mechanical phenotyping of Latrunculin-treated MCF-7 cells; details: for cellular deformation in the transverse direction (δdeform) compared to control: one hour at 37° C.; for cellular deformation in the transverse direction (δdeform) compared to control / wCDI (whole cell deformability index) compared to untreated control cells: strain εavg˜0.3; for treated cells that instantaneously recover from deformation: ΔTr˜0 ms, untreated 38.3%
From the text: (§2) Platform design, including geometry and sizing, may be configured and adapted to target indications, such as cell type and size range. In this example, the platform comprises of a 30 μm-high microfluidic channel embedded in a polydimethylsiloxane (PDMS) mold bonded to a glass substrate with pre-defined platinum (Pt) electrodes and gold (Au) contact pads (FIG. 1a). The central part of the channel, which we refer to as the “contraction channel”, is long (2055 μm) and narrow (10 or 12 μm-wide) and flanked on either side by a series of nodes and pores that are 85 μm and 25 μm wide, respectively (FIG. 1a, inset). The length of the contraction channel was chosen to provide sufficient time (˜30 ms) over which a cell experiences constant applied strain. The node and pore dimensions were chosen for sufficient signal-to noise ratios. Given the flexibility and ease of device design and fabrication, different contraction channel lengths and node and pore dimensions could be employed. Filters that are 25 μm in width (the width chosen based on the size range of cells measured in these studies, ˜15-20 μm in diameter) are included at the entrance of the microfluidic channel in order to remove cellular clusters that may otherwise clog the device. Applying a constant DC voltage (1 V) across the channel, we employ a four-terminal measurement technique^37-40 to measure the current pulses caused by cells transiting across the microfluidic channel when a non-pulsatile pressure of ˜21 kPa (determined by a commercial pressure gauge, SSI Technologies) is utilized (FIG. 1b and FIG. 2). After low-pass filtering all current versus time data, we employ custom-written software to extract both the magnitude and duration of each current sub-pulse (ΔInp, ΔIc, ΔTcont, and ΔTr in FIG. 1b; FIG. 3).
as §1
(§3) To determine De, we measure polystyrene microspheres of known size with the microfluidic channel. Using the values of ΔI/I arising from the microspheres, along with the known values of L and d (the size of the microspheres in this instance), we can numerically solve for De in Equation (5). Once De is known, we can subsequently determine Dcell of a screened cell by numerically solving for d in Equation (5) using the obtained values of ΔInp/I. We can also determine the volume of the deformed cell, Vdeform, by the relationship^39, 57, 58, ΔIc/I˜Vdeform/Vcontraction, where Vcontraction is the volume of the contraction channel. To calculate Ldeform, we assume the cell undergoes an isometric deformation in the direction of both the channel's longitudinal axis and channel height, resulting in an oblate-spheroid shape. From the relationship between the volume and major radius of the oblate spheroid, Vdeform=πwcLdeform^2/6 where wc is the contraction-channel width, we can determine Ldeform from ΔIc/I. We quantify the transverse deformation of the cell, δdeform=Ldeform/Dcell, as it transits the contraction channel.
(§4) As a cell traverses through each section of the channel, the duration of the resulting sub-pulse produced by a cell corresponds to the cell's transit time (ΔT) through that part of the channel. […]

MCF-10A cells = assay: mechano-NPS mechanical phenotyping of Latrunculin-treated MCF-10A cells; details: for cellular deformation in the transverse direction (δdeform) compared to control: one hour at 37° C.; for cellular deformation in the transverse direction (δdeform) compared to control / wCDI (whole cell deformability index) compared to untreated control cells: strain εavg˜0.3; for treated cells that do not recover within the 40 ms time window (prolonged recovery): ΔTr>40 ms, untreated 9.7%
From the text: as §2, §1, §3, §4

SMILES: C/C1=C/C(=O)O[C@@H]2C[C@@H](CC[C@H](C)/C=C\C=C\CC1)O[C@@](O)([C@@H]1CSC(=O)N1)C2 [LatA, Latrunculin A]
- F-actin filaments by staining and confocal microscopy (F-actin filaments): inhibited
- change in wCDI as a function of treatment concentration (MCF-7 cells; 2.5 or 5 μg/mL): increased with concentration
- cellular deformation in the transverse direction (δdeform) compared to control (MCF-7 cells; 2.5 or 5 μg/mL): significantly reduced
- wCDI (whole cell deformability index) compared to untreated control cells (MCF-7 cells): increased
- treated cells that instantaneously recover from deformation (MCF-7 cells): 8.1%
- change in wCDI as a function of treatment concentration (MCF-10A cells; 2.5 or 5 μg/mL): increased with concentration
- cellular deformation in the transverse direction (δdeform) compared to control (MCF-10A cells; 2.5 or 5 μg/mL): significantly reduced
- wCDI (whole cell deformability index) compared to untreated control cells (MCF-10A cells): increased
- treated cells that do not recover within the 40 ms time window (prolonged recovery) (MCF-10A cells): 66.7%

SMILES: C/C1=C/C(=O)O[C@@H]2C[C@@H](CC[C@H](C)/C=C\CC1)O[C@@](O)([C@@H]1CSC(=O)N1)C2 [LatB, Latrunculin B]
- F-actin filaments by staining and confocal microscopy (F-actin filaments): inhibited
- cellular deformation in the transverse direction (δdeform) compared to control (MCF-7 cells; 2.5 or 5 μg/mL): significantly reduced
- wCDI (whole cell deformability index) compared to untreated control cells (MCF-7 cells): increased
- treated cells that instantaneously recover from deformation (MCF-7 cells): 24.2%
- cellular deformation in the transverse direction (δdeform) compared to control (MCF-10A cells; 2.5 or 5 μg/mL): significantly reduced
- wCDI (whole cell deformability index) compared to untreated control cells (MCF-10A cells): no detectable change
- treated cells that do not recover within the 40 ms time window (prolonged recovery) (MCF-10A cells): 41.4%
